Source: US11702449B2, “Angiogenesis-inhibiting peptide and composition for preventing and treating angiogenesis-related disease comprising same as active ingredient” (AVIXGEN INC., priority 2015, dated 2023)
Square brackets hold non-standard residues; d marks the D form. Peptide text beside a SMILES is read from it.

Experiments:
[1] = test system: human umbilical cord vascular endothelial cells (HUVECs); format: cell-based
Method: Migration analysis for human umbilical cord vascular endothelial cells (HUVECs) was carried out using a Transwell culture plate to which a polycarbonate filter (pore size: 8 μm) with a diameter of 6.5 mm was attached. A surface of the filter was coated with 10 μg of gelatin. Fresh M199 medium (1% fetal bovine serum) containing VEGF (10 ng/ml) was added into a lower compartment of the Transwell plate, HUVECs (1×10^6 cells/100 μl) which had reacted with 0.15 nM or 1.5 nM peptides at room temperature for 30 minutes were carefully transferred to an upper compartment of the plate. The resulting HUVECs were cultured in a CO2-constant temperature and humidity chamber for 4 hours, and the cells migrated under the Transwell filter were stained by H&E staining and quantified using an optical microscope.

[2] = test system: retinal vascular leakage; assay: Streptozotocin (STZ)-induced diabetic retinopathy mouse model, retinal vascular leakage; format: in vivo; details: STZ diabetic mice
Method: A freshly prepared STZ solution (100 mM) in a citrate buffer (100 mM, pH 4.5) was intraperitoneally injected at 150 mg/kg into the mice, and to prevent hypoglycemic shock, 10% sucrose was sufficiently provided. After two days, blood glucose was measured using an Accu-Chek Performa blood glucose meter (Roche Diagnostics GmbH, Germany), and when non-fasting blood glucose within 1 to 2 weeks was maintained at 300 mg/dl or more, the mice were used as diabetic animal models. The diabetes-induced mice were anesthetized with 2% avertin, and 1 μl of a 1.5 mM EYLR (SEQ ID NO: 5), RLYE (SEQ ID NO: 2) or Ac-RLYE (SEQ ID NO: 1) solution was intravitreally injected. Here, the same amount of PBS was injected into the control group. The peptide was injected, and after 24 hours, 1 ml (1.25 mg) of FITC-dextran (250 kDa) was injected into the left ventricle of each mouse to allow circulation for approximately 5 minutes. The mice were euthanized by cervical dislocation, and the eyeballs were extracted and fixed in 4% paraformaldehyde at room temperature for 1 hour. The retina was isolated from the fixed eyeball to prepare a retinal flat mount, and vascular leakage was observed under a confocal microscope. Meanwhile, the fluorescence of FITC-dextran leaked from retinal vessels was measured using Fluoview software.

[3] = test system: HUVECs; assay: Tube formation of vascular endothelial cells on Matrigel (VEGF-induced); format: cell-based, human
Method: A degree of tube formation of HUVECs was determined using growth factor-reduced Matrigel. 250 μl of the Matrigel (10 mg protein/ml) was added into a 24-well plate to allow polymerization for 30 minutes at 37° C. HUVECs cultured in M199 (1% fetal bovine serum) medium for 6 hours were carefully transferred onto the Matrigel in the culture plate at a density of 2×10^5 cells/well, and VEGF (10 ng/ml) were cultured alone or with peptides (0.15 nM) at 37° C. for 20 hours. Meanwhile, peptides that were reacted in PBS or fresh human serum for 3 hours were also used. The degree of tube formation of HUVECs was visualized using an inverted phase-contrast microscope, and a length of the formed tube was measured and quantified by Image-Pro Plus version 4.5 (Media Cybernetics, San Diego, Calif.).

[4] = Peptide stability analysis in human serum (HPLC); format: in vitro ADME; details: for half-life at 1 mg/mL: pH 7.4, human serum
Method: (§1) Serum was separated by centrifugation (tabletop centrifuge, 3000 rpm, 20 min) of blood obtained from a healthy person. The serum was filtrated using a filter (Millipore) with a pore size of […], and then 50 μl of the human serum was mixed with 100 μg of RLYE (SEQ ID NO: 2), R(D)LYE (SEQ ID NO: 6), RLYE-NH2 (SEQ ID NO: 3) or Ac-RLYE (SEQ ID NO: 1) (100 μg/50 PBS, pH 7.4), and incubated by time at a constant temperature of 37° C. A peptide concentration of the sample was calculated by a peak area after the sample was separated by C18 reverse phase high-performance liquid chromatography (HPLC; Vydac protein and peptide C18 column, 0.1% trifluoroacetate in H2O for equilibration, and 0.1% trifluoroacetate in acetonitrile for elution).

[5] = test system: HCT116 xenograft; assay: Human colon cancer (HCT116) xenografted mouse model, tumor size and growth; format: in vivo
Method: Human colon cancer cells (HCT116, 1×10^7 cells/100 μl) were subcutaneously injected into the left side of a nude mouse (BALB/c nu/nu, 6 week old, male), and then when a tumor volume reached at least 50 to 70 mm^3 (approx. 7 days), physiological saline (negative control), RLYE (SEQ ID NO: 2) (1.0 mg/kg), R(D)LYE (SEQ ID NO: 6) (1.0 mg/kg) or Ac-RLYE (SEQ ID NO: 1) (1.0 mg/kg; abnormal, experimental group) was intraperitoneally injected once a day. A VEGF neutralizing antibody, bevacizumab, was intraperitoneally injected at 2 mg/kg twice a week (positive control). A tumor size was two-dimensionally measured using calipers. A tumor volume (mm^3) was calculated by the formula: width^2×length×0.52.

[6] = test system: tumor vessels of HCT116 xenograft; assay: Measurement of tumor angiogenesis (FITC-isolectin B4 staining); format: in vivo, mouse; details: FITC-isolectin B4 staining of tumor tissue
Method: Tumor tissue was fixed with 10% formalin, and inserted into paraffin. A slide was prepared using a tumor tissue section, immersed in xylene to remove paraffin, and rehydrated by stepwise treatment with 100%, 95%, 80%, and 70% ethanol. Afterward, the slide was washed with deionized water several times at room temperature. To inhibit the intracellular activity of a peroxidase, the tissue section was reacted in 0.3% hydrogen peroxide-containing methanol for 15 minutes, and washed with PBS three times. The tissue section was reacted in 3% goat serum-containing PBS for 2 hours at room temperature, and reacted with FITC-isolectin B4 ([…]; Vector Laboratories) for 1 hour. The tissue section was washed with PBS three times and then a permanent slide was prepared using a cryo-mount solution (OCT mouting medium, Tissue Tek, Sakura Finetek), and then tumor vessels were visualized using a fluorescence microscope.

[7] = test system: choroidal neovascularization; assay: Laser-induced choroidal neovascularization mouse model; format: in vivo
Method: To prepare a laser-induced choroidal neovascularization animal model, a Bruch membrane between a retinal layer and a choroidal layer was destroyed by irradiating the mouse retina with a diode laser at an intensity of 400 mW and a duration of 50 ms, and then choroidal neovascularization occurred over 14 days. The retinas of 6 week-old male C57BL/6 mice were irradiated with a laser under the above conditions, the formation of a lesion was confirmed through a safety inspection on day 10, and 1 μl of a 1.5 mM EYLR (SEQ ID NO: 5), RLYE (SEQ ID NO: 2) or Ac-RLYE (SEQ ID NO: 1) solution was intravitreally injected. Here, the same amount of saline was injected into the control group. After 4 days (14 days after the laser irradiation), an experiment for analyzing a therapeutic effect was carried out by extracting the eyeballs of the mice. The extracted eyeballs were fixed in 4% paraformaldehyde for 12 hours, and embedded in paraffin. Sections with a thickness of 4 μm were prepared from paraffin tissue, and subjected to H&E staining. Afterward, an image of a section with the largest choroidal neovascular membrane area was taken from each subject, and the area of the choroidal neovascular membrane was quantitatively analyzed using ImageJ program (NIH, Bethesda, Md., USA). In the saline-injected control group, the average of the choroidal neovascular areas was represented as 100%, and a therapeutic effect of each treatment group was analyzed. Meanwhile, 1 ml (1.25 mg) of FITC-dextran (250 kDa) was injected into the left ventricle one hour before extraction of the mouse eyeball to allow systemic perfusion. After extraction, the eyeball was fixed in 4% paraformaldehyde for 1 hour. Then, the cornea and the crystalline lens were cut off by scissors, the retina was carefully removed using forceps to prepare a complex of retina pigment epithelium/choroid/sclera tissues. The retina flat-mounted complex tissue was observed under a fluorescence microscope and photographed.

[8] = Peptide stability in PBS; format: physicochemical; details: incubated in PBS at 37° C.
Method: as §1
To evaluate RLYE (SEQ ID NO: 2) stability, an RLYE peptide (SEQ ID NO: 2) was added to each of PBS and human serum, and incubated by time at a constant temperature of 37° C.

[9] = 1 μl of 1.5 mM solution intravitreal, H&E area analysis

Molecule: CC(=O)N[C@@H](CCCNC(=N)N)C(=O)N[C@@H](CC(C)C)C(=O)N[C@@H](Cc1ccc(O)cc1)C(=O)N[C@@H](CCC(=O)O)C(N)=O [Ac-RLYE-NH2] (Ac-RLYE-NH2)
- IC50 [1]: 80.2 nM

Molecule: CC(=O)N[C@@H](CCCNC(=N)N)C(=O)N[C@@H](CC(C)C)C(=O)N[C@@H](Cc1ccc(O)cc1)C(=O)N[C@@H](CCC(=O)O)C(=O)O [Ac-RLYE] (Ac-RLYE-OH; C-terminus assumed)
- effect on retinal vascular leakage ([2]; 1 μl of 1.5 mM solution intravitreal, 24 hours): effectively inhibited
- inhibitory effect on retinal vascular leakage compared with RLYE ([2]; intravitreal): higher inhibitory effect on blood vascular leakage than RLYE
- inhibition of VEGF-induced tube formation ([3]; peptides pretreated with PBS for 3 hours): effectively inhibited
- inhibition of VEGF-induced tube formation ([3]; peptides pretreated with human serum for three hours): effectively inhibited
- half-life at 1 mg/mL ([4]; 37° C.): 8.8 h
- anticancer effect compared with RLYE ([5]; 1.0 mg/kg/day intraperitoneal, HCT116 nude mouse): higher than that of RLYE
- effect on size and growth of tumor ([5]; 1.0 mg/kg/day intraperitoneal, once a day, HCT116 nude mouse): inhibited the size and growth of a tumor
- anticancer effect compared with bevacizumab ([5]; peptide 1.0 mg/kg/day i.p., bevacizumab 2.0 mg/kg twice a week): a little lower than that of the positive control bevacizumab
- IC50 [1]: 0.05 nM
- effect of inhibiting cancer angiogenesis compared with RLYE [6]: higher than that of RLYE
- choroidal neovascularization inhibition compared with RLYE [7, 9]: highly effective compared to RLYE
- effect on choroidal neovascularization [7, 9]: effectively reduced
- choroidal neovascularization inhibition compared with RLYE, retinal flat mount ([7]; FITC-dextran, retinal flat mount technique): higher effect of inhibiting choroidal neovascularization than RLYE

Molecule: CC(C)C[C@H](NC(=O)[C@H](N)CCCNC(=N)N)C(=O)N[C@@H](Cc1ccc(O)cc1)C(=O)N[C@@H](CCC(=O)O)C(=O)O [R(D)LYE] (H-[dR]LYE-OH; N-terminus and C-terminus assumed)
- half-life at 1 mg/mL ([4]; 37° C.): 7 h
- IC50 [1]: 0.06 nM

Molecule: CC(C)C[C@H](NC(=O)[C@@H](N)CCCNC(=N)N)C(=O)N[C@@H](Cc1ccc(O)cc1)C(=O)N[C@@H](CCC(=O)O)C(=O)O [RLYE, Arg-Leu-Tyr-Glu, reference compound] (H-RLYE-OH; N-terminus and C-terminus assumed)
- RLYE degradation induced by albumin ([4]; albumin added, 37° C.): did not induce
- RLYE degradation by human serum with bestatin ([4]; aminopeptidase B inhibitor bestatin added): effectively inhibited
- half-life at 1 mg/mL ([4]; 37° C.): 1.2 h
- degradation in PBS [8]: did not occur
- IC50 [1]: 0.08 nM

Molecule: CC(C)C[C@H](NC(=O)[C@@H](N)CCCNC(=N)N)C(=O)N[C@@H](Cc1ccc(O)cc1)C(=O)N[C@@H](CCC(=O)O)C(N)=O [RLYE-NH2] (H-RLYE-NH2; N-terminus assumed)
- half-life at 1 mg/mL ([4]; 37° C.): 1.3 h
- IC50 [1]: 0.11 nM

Molecule: EYLR: reverse-sequence of the RLYE peptide [reference compound]
- effect on choroidal neovascularization [7, 9]: had no change
